Source: ChEMBL document CHEMBL3734649, “H2O-mediated isatin spiro-epoxide ring opening with NaCN: Synthesis of novel 3-tetrazolylmethyl-3-hydroxy-oxindole hybrids and their anticancer evaluation” (Eur J Med Chem, 2015)

Experiments:
[1] = Anticancer activity against human DU145 cells after 48 hrs by MTT assay; assay type: functional, cell-based; details: DU-145, 48 h
MDA-MB-231 = assay: Anticancer activity against human MDA-MB-231 cells after 48 hrs by MTT assay; assay type: functional, cell-based; details: MDA-MB-231, 48 h
[2] = Anticancer activity against human PC3 cells after 48 hrs by MTT assay; assay type: functional, cell-based; details: PC-3, 48 h
[3] = Anticancer activity against human BT549 cells after 48 hrs by MTT assay; assay type: functional, cell-based; details: BT-549, 48 h
[4] = Anticancer activity against human PA1 cells after 48 hrs by MTT assay; assay type: functional, cell-based; details: PA-1, 48 h
[5] = Cytotoxicity against human RWPE1 cells after 48 hrs by MTT assay; assay type: cell-based; details: RWPE-1, 48 h
[6] = Selectivity index, ratio of IC50 for human RWPE1 cells to IC50 for human DU145 cells; assay type: functional

Work on `CCN1C(=O)C(O)(Cc2nnn[nH]2)c2cc(Cl)ccc21` (stereo not drawn) yielded an IC50 [1] of 21.5 µM, an IC50 (MDA-MB-231) of 84.9 µM and an IC50 [2] of 79.3 µM. For the same molecule, the IC50 [3] was 85.4 µM and the IC50 [4] was 49.5 µM.
In the case of `CCN1C(=O)C(O)(Cc2nnn[nH]2)c2cc(Br)ccc21` (stereo not drawn), the IC50 [1] is reported as > 100 µM, the IC50 (MDA-MB-231) is reported as > 100 µM and the IC50 [2] is reported as > 100 µM. For the same molecule, the IC50 [3] was > 100 µM and the IC50 [4] was > 100 µM.
For `CCN1C(=O)C(O)(Cc2nnn[nH]2)c2cc(C)ccc21` (stereo not drawn), the IC50 [1] was 14.6 µM, the IC50 [5] was > 100 µM and the IC50 (MDA-MB-231) was > 100 µM. The IC50 [2] was > 100 µM, the IC50 [3] was > 100 µM and the IC50 [4] was > 100 µM.
In the case of `O=C1N(Cc2ccc(Br)cc2)c2ccccc2C1(O)Cc1nnn[nH]1` (stereo not drawn), the IC50 [1] is reported as 7.01 µM, the IC50 [5] is reported as 76 µM and the IC50 (MDA-MB-231) is reported as > 100 µM. It also gave an IC50 [2] of 10.1 µM, an IC50 [3] of 73.4 µM and an IC50 [4] of 38.9 µM. The “Ratio IC50” value [6] was 10.
For `O=C1N(Cc2ccc(Br)cc2)c2ccc(Br)cc2C1(O)Cc1nnn[nH]1` (stereo not drawn), the IC50 [1] was 59.6 µM, the IC50 (MDA-MB-231) was 65.4 µM and the IC50 [2] was > 100 µM. The IC50 [3] was 88.8 µM and the IC50 [4] was > 100 µM.
Work on `O=C1N(Cc2ccccc2)c2ccc(Br)cc2C1(O)Cc1nnn[nH]1` (stereo not drawn) yielded an IC50 [1] of 46.2 µM, an IC50 (MDA-MB-231) of 96.1 µM and an IC50 [2] of 75.8 µM. For the same molecule, the IC50 [3] was 39.6 µM and the IC50 [4] was 74.4 µM.
In the case of `Cc1ccc2c(c1)C(O)(Cc1nnn[nH]1)C(=O)N2C` (stereo not drawn), the IC50 [1] is reported as > 100 µM, the IC50 (MDA-MB-231) is reported as > 100 µM and the IC50 [2] is reported as > 100 µM. For the same molecule, the IC50 [3] was > 100 µM and the IC50 [4] was > 100 µM.
For `O=C1N(Cc2ccc(Br)cc2)c2ccc(Cl)cc2C1(O)Cc1nnn[nH]1` (stereo not drawn), the IC50 [1] was 19.5 µM, the IC50 (MDA-MB-231) was > 100 µM and the IC50 [2] was 87.9 µM. It also gave an IC50 [3] of 74.5 µM and an IC50 [4] of 35.8 µM.
With `O=C1N(Cc2ccccc2)c2ccc(F)cc2C1(O)Cc1nnn[nH]1` (stereo not drawn) the IC50 [1] was > 100 µM, the IC50 (MDA-MB-231) was 27.2 µM and the IC50 [2] was > 100 µM. For the same molecule, the IC50 [3] was 78.7 µM and the IC50 [4] was > 100 µM.
